In US9034825B2, “Treatment of myocardial injury with humanin analogs” (Albert Einstein College of Medicine of Yeshiva University, priority 2007, dated 2015):

Key:
IGFBP-3 = IGFBP-3 (Homo sapiens, UniProt P17936); experiment: Dot blots probed with radiolabeled IGFBP-3; format: binding; conditions: FIG. 17A
Protocol: For acute signaling studies, rats were injected ICV with either aCSF, 20 μg of HN or F6A (dissolved in aCSF) over 5 min, and sacrificed 30 min later. Tissue sample were obtained from mediobasal hypothalamus, liver and muscle. Samples were also obtained from these tissues at the end of the clamp and western blot analysis was performed as described previously (Muzumdar et al. 2003) The blots were scanned using the LI-COR Odyssey (LI-COR, Lincoln, Nebr., USA) and quantified using Odyssey 2.0 software based on direct fluorescence measurement. Dot blots were performed by blotting 50 ng of humanin, HN-analogues, and IGF on nitrocellulose, incubating with 125-I-labeled-IGFBP-3, autoradiography and scanning.

normal MEFs = experiment: Apoptosis ELISA in normal mouse embryonic fibroblasts; format: cell-based; conditions: 24 hours, 100 nM of peptides
Protocol: (§1) Mouse embryonic fibroblasts derived from normal and IGFBP3 KO mice were used to test the effects of humanin and its analogues on survival. Apoptosis ELISA was used as an output measure and cells were treated for 24 hours with 100 nM of peptides. […] Thus, the HNGF6A humanin analogue has non-obvious properties that are different from previously described humanin derivatives and has increased potency as a result of its specific molecular alteration leading to reduced IGFBP-3 binding.

BP3KO MEFs = experiment: Apoptosis ELISA in IGFBP3 KO mouse embryonic fibroblasts; format: cell-based; conditions: 24 hours, 100 nM of peptides
Protocol: as §1

NONcNZO10/LtJ mice = experiment: IP glucose tolerance test in NONcNZO10/LtJ mice; format: in vivo, mouse; conditions: IP 25 microgram twice a day for 14 days; IP GTT on D15
Protocol: NONcNZO10/LtJ mice were injected IP with HNGF6A 25 microgram twice a day for 14 days. Mice were subjected to 6 hour fast followed by IP GTT on D15. Baseline glucose measurement was taken and the mice were injected IP with 0.5 mg/g glucose. Glucose was sampled at 0 and 90, 120 min.

Sprague-Dawley rats = experiment: Intravenous infusion of humanin or analogs during hyperinsulinemic clamp; format: in vivo, rat; conditions: infused peripherally 0.0375 mg/kg/hr
[1] = system: mice, myocardial ischemia-reperfusion (I/R) injury; experiment: Murine myocardial ischemia-reperfusion injury; format: in vivo, mouse
Protocol: The cardioprotective effects of a single-dose of humanin analog HNG treatment were investigated in a murine model of myocardial ischemia-reperfusion (I/R) injury. Mice were subjected to transient myocardial ischemia for a period of 45 min followed by 24 hour reperfusion. HNG (1, 5, 10, 25, 50 and 200 microgram) or vehicle (saline) was administered intraperitoneally one hour before ischemia.

[2] = system: memory impairment caused by AD-related insults; conditions: literature (Tajima et al., 2005); cited from earlier work

Sequence of IGFBP-3 (P17936 28-291): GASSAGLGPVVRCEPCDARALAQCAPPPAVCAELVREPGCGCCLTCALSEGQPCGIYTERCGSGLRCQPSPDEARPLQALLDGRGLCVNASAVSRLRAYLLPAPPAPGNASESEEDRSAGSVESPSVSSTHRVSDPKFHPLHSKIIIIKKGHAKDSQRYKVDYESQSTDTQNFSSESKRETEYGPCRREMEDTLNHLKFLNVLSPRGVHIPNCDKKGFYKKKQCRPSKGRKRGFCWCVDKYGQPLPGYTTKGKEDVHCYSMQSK

Substance | ability to bind IGFBP-3 (IGFBP-3) | potency on survival (Apoptosis ELISA) (normal MEFs) | potency on survival (Apoptosis ELISA) (BP3KO MEFs) | glucose levels at 90 and 120 min (NONcNZO10/LtJ mice) | glucose tolerance (NONcNZO10/LtJ mice) | glucose infusion rates during clamp (Sprague-Dawley rats) | hepatic glucose production (Sprague-Dawley rats; clamp) | peripheral glucose uptake (Sprague-Dawley rats; clamp) | myocardial injury ([1]; single dose IP one hour before 45 min ischemia, 24 hour reperfusion) | doses at which reduced myocardial infarct was observed ([1]; single dose IP one hour before ischemia, 1-200 microgram tested) [µg] | potency relative to native HN in rescue activity against AD-related insults in vivo [2] [times]
MAPRGASCLLLLTGEIDLPVKRRA (Humanin analog HNGF6A) [HN with alanine at 6th amino acid] | completely devoid of the ability to bind IGFBP-3 | more potent | equal potency | significantly lower | significantly better glucose tolerance | significantly higher | suppressive effects | significant increase | – | – | –
maprgfscll lltgeidlpv krra (MAPRGFSCLLLLTGEIDLPVKRRA; Humanin analog S14G (HNG)) [humanin analogue in which serine at position 14 is replaced by glycine] | – | – | equal potency | – | – | – | – | – | decreased myocardial injury | ≥ 5 | 1000
